Where two headings read alike, the source gives them in different places.
Legend:
AR-TIF2 PPI = target: T1, AR-TIF2 PPI (Homo sapiens, UniProt P10275); assay: AR-TIF2 PPIB HCS assay: disruption of preformed DHT-induced AR-TIF2 PPI complexes (DHT then compound); type: cell-based; details: U-2 OS cells
T1 construct: AR-LBD residues (662-919) were incorporated into one biosensor; expressed in transfected cells; host or cells: U-2 OS osteosarcoma cells, coinfected with recombinant adenoviruses
T1 sequence (P10275 662-919): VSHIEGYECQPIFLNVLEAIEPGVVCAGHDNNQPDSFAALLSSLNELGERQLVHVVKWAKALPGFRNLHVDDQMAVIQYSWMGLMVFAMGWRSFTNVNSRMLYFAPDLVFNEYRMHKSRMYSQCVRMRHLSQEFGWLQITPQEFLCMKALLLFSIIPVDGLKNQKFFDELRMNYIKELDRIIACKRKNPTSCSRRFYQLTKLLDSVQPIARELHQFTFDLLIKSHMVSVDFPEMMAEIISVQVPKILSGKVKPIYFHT
Method: AR-TIF2 Protein-Protein Interaction Biosensor Assay: The AR-TIF2 PPIB HCS assay was performed in U-2 OS osteosarcoma cells as described previously (Fancher et al., Assay Drug Dev Technol. 2016, 14:453-477; Fancher et al., Assay Drug Dev Technol. 2018, 16:297-319; Hua et al., Assay Drug Dev Technol. 2014, 12:395-418; Hua et al., Methods Mol Biol. 2018, 1683:211-227). Briefly, U-2 OS cells were coinfected with recombinant adenovirus biosensor expression constructs and seeded at 2,500 cells per well in 384-well collagen-coated microplates (Greiner Bio-One #781956) and plates were incubated overnight at 37° C. in 5% CO2 and 95% humidity. […] After the appropriate time, assay plates were fixed by transfer of 50 μL of pre-warmed (37° C.) 7.4% formaldehyde and 2 μg/mL Hoechst 33342 in PBS and incubation at room temperature for 30 minutes. Liquid was aspirated, plates were washed twice with 85 μL PBS, leaving the final wash in the plate. Plates were sealed with adhesive aluminum plate seals, and fluorescent images of three fields of view were acquired in the DAPI (Hoechst stained nuclei), FITC (TIF2-GFP) and Texas Red (AR-RFP) channels on an ImageXpress® Micro (IXM) automated HCS platform (Molecular Devices LLC, Sunnyvale, CA) using a 10× Plan Fluor 0.3 NA objective. Images were analyzed using the Translocation Enhanced (TE) image analysis module of the MetaXpress® software (Molecular Devices, LLC, San Jose, CA) as described previously (Fancher et al., Assay Drug Dev Technol. 2016, 14:453-477; Fancher et al., Assay Drug Dev Technol. 2018, 16:297-319; Hua et al., Assay Drug Dev Technol. 2014, 12:395-418; Hua et al., Methods Mol Biol. 2018, 1683:211-227).
For the 96-well AR-LBD H^3-DHT radioligand binding assay, eight minimum and maximum plate control wells were utilized to normalize the data. For the PC cell line growth inhibition assays the DMSO control data from the TO and T72 assay plates was used to assess the dynamic range of the T0 to T72 cell growth, and to calculate S:B ratios and Z′-factor coefficient statistics for the assay signal window (T0 to T72). To normalize the 72 h compound exposure PC growth inhibition data, the signals from the compound treated wells were processed and expressed as % of the T72 DMSO plate controls. IC50 and GI50 values for each of the bioassays were calculated using GraphPad Prism 9 software to plot and fit data to curves using the Sigmoidal dose response variable slope equation Y=Bottom+[Top-Bottom]/[1+10^(Log EC50−X)*HillSlope].
A positional AR-TFI2 protein-protein interaction biosensor (PPIB) assay was used to identify small molecules that inhibited DHT-induced formation of AR-TIF2 PPIs and/or disrupted pre-existing AR-TIF2 PPIs (Fancher et al., Assay Drug Dev Technol 2016, 14(8):453-477; Fancher et al., Assay Drug Dev Technol 2018, 16(6):297-319; Hua et al., Assay Drug Dev Technol 2014, 12:395-418; Hua et al., Methods Mol biol 2018, 1683:211-227). AR-LBD residues (662-919) were incorporated into one biosensor and TIF2 residues (725-840) containing the 3rd NR box LXXLL motif into the second interacting biosensor partner (Id.) The AR-TIF2 PPIB recapitulates the orthosteric ligand (OSL)-induced translocation of AR from the cytoplasm into the nucleus where PPIs with TIF2 result in colocalization of both biosensors in the nucleolus. Using three libraries, a total of 143,535 compounds were screened—a 10,000-compound ChemDiv PPI focused diversity library, a 50,000-compound ChemBridge diversity library, and a 83,535-compound library provided by the NCI's Chemical Biology Consortium. The 10K and 50K diversity libraries were subsets of 142K and 810K parent libraries, enabling screening of a representative subset of >1×10^6 compounds. AR-TIF2 PPI inhibitor and disruptor actives were confirmed in the HCS assay and counter screens designed to identify and exclude nuisance/interference or non-selective compounds (Fancher et al., Assay Drug Dev Technol 2018, 16(6):297-319). […]

[1] = tested on: DHT-induced full length AR PSA promoter-driven transcription in C4-2 CRPC cells; assay: PSA-6.1 luciferase reporter assay in C4-2 CRPC cells; type: cell-based
Method: Prostate Specific Antigen (PSA)-6.1 Luciferase Reporter Assay in the C4-2 CRPC Cell Line: The PSA-6.1-Luc luciferase reporter plasmid was provided by Dr. Zhou Wang in the Urology department of the University of Pittsburgh Cancer Institute. The PSA-6.1-Luc reporter is controlled by a fragment of the PSA promoter that contains at least three AREs. The PSA-6.1-Luc plasmid (12 ng/well) was combined with FuGENE® 6 transfection agent at a ratio 6:1 in SFM and incubated for 25 minutes at room temperature before being combined with C4-2 cells suspended in RPMI 1640 media containing 1% penicillin-streptomycin, 1% L-glutamine, and 10% FBS. Transfected cells were then seeded into white opaque 384-well assay plates (Greiner Bio-one, #781080) at 6,000 cells per well in a volume of 30 μL and incubated in 5% CO2, 37° C., and 95% humidity for 24 h.

[2] = 25 nM DHT, read-out: Disruption of DHT-induced AR-TIF2 PPIs IC50
[3] = DHT then compound, read-out: D then C IC50
[4] = C4-2 CRPC cells, read-out: Inhibition of DHT-induced full length AR PSA reporter IC50
[5] = C4-2, 24 h, 24 h exposure, read-out: IC50 in PSA-Luc reporter assay, C4-2 cells (potency range in words)
[6] = b132, read-out: IC50, DHT-induced AR-mediated PSA promoter-driven transcription in C4-2 CRPC cells

Which results are given for `Cc1ccccc1-c1cc(O)c2c(c1)CN(c1nc(C(N)=O)cs1)CCO2` [Compound S1-1]?
IC50 (AR-TIF2 PPI; [2]): 24.8 µM; IC50 ([1]; C4-2 CRPC cells, listed as 1, read-out: Inhibition of DHT-induced full length AR PSA reporter IC50): 5.27 µM

Which IC50 (AR-TIF2 PPI; [3]) does the source give for `Cc1nc(N)cc(N2CCOc3c(O)cc(-c4ccccc4C)cc3C2)n1` [Compound S1-2] here?
Its IC50 is 63 µM.

What about the IC50 [1, 4] of the same molecule?
The IC50 was < 37 µM.

`Cc1ccccc1-c1cc(O)c2c(c1)CN(c1nccs1)CCO2` [Compound S1-3] was tested. Which IC50 (AR-TIF2 PPI; [3]) did it give?
Its IC50 is 41.8 µM.

What about the IC50 [1, 4] of the same molecule?
Its IC50 is < 37 µM.

With `Cc1ccccc1-c1cc(O)c2c(c1)CN(c1cc(N)ncn1)CCO2` [Compound S1-4] as the molecule, how does the IC50 (AR-TIF2 PPI; [3]) read?
Its IC50 is > 100 µM.

And the IC50 (AR-TIF2 PPI; [2])?
Its IC50 is > 100 µM.

What about the IC50 [1, 4] of the same molecule?
The IC50 was < 37 µM.

For `COc1cc(-c2ccc(C)s2)cc2c1OCCN(c1nc(C(N)=O)cs1)C2` [Compound S1-5], which IC50 (AR-TIF2 PPI; [3]) is on record?
Its IC50 is > 100 µM.

What about the IC50 (AR-TIF2 PPI; [2]) of the same molecule?
The IC50 was > 100 µM.

What about the IC50 [1, 4] of the same molecule?
The IC50 was < 37 µM.

How did the IC50 (AR-TIF2 PPI; [3]) turn out when `Cc1nsc(NC(=O)N2CCC(Sc3ccccc3C)CC2)n1` [Compound S2-6] was run?
The IC50 was 5.8 µM.

And the IC50 (AR-TIF2 PPI; [2])?
Its IC50 is 5.64 µM.

`Cc1nsc(NC(=O)N2CCC(Cn3ccnc3)CC2)n1` [Compound S2-7] was tested. Which IC50 (AR-TIF2 PPI; [3]) did it give?
Its IC50 is > 100 µM.

What about the IC50 (AR-TIF2 PPI; [2]) of the same molecule?
Its IC50 is > 100 µM.

`Cc1c(-c2ccccc2F)[nH]c2ccc(CNC(=O)CCc3cn[nH]c3)cc12` [Compound S3-11] was tested. Which IC50 (AR-TIF2 PPI; [2]) did it give?
Its IC50 is 26.1 µM.

What about the IC50 [1, 5] of the same molecule?
The IC50 was 1 to 10 µM.

And the IC50 [1, 4]?
Its IC50 is 4.21 µM.

`Cc1c(-c2ccccc2F)[nH]c2ccc(CNC(=O)CCc3cnccn3)cc12` [Compound S3-12] was tested. Which IC50 (AR-TIF2 PPI; [3]) did it give?
Its IC50 is 24.7 µM.

And the IC50 [1, 5]?
The IC50 was 1 to 10 µM.

Which results are given for `CC(=O)NCCC(=O)NCc1ccc2[nH]c(-c3ccccc3F)c(C)c2c1` [Compound S3-13]?
IC50 (AR-TIF2 PPI; [3]): 37.6 µM; IC50 [1, 6]: 40 to 59 µM

`Cc1c(-c2ccccc2F)[nH]c2ccc(CNC(=O)c3ccc(CO)o3)cc12` [Compound S3-14] was tested. Which IC50 (AR-TIF2 PPI; [3]) did it give?
Its IC50 is 16 µM.

What does the source list for `Cc1c(-c2ccc(F)cc2)[nH]c2ccc(CNC(=O)c3ccc(CO)o3)cc12` [Compound S3-15]?
IC50 (AR-TIF2 PPI; [3]): 30.6 µM; IC50 [1, 5]: 1 to 10 µM

With `Cc1cccc2c(-c3ccc(O)c(F)c3)c[nH]c12` [Compound S3-17] as the molecule, how does the IC50 (AR-TIF2 PPI; [3]) read?
Its IC50 is 8.8 µM.

And the IC50 [1, 5]?
Its IC50 is 1 to 10 µM.

For `CNC(=O)c1ccc(-c2c[nH]c3c(C)cccc23)cc1` [Compound S3-21], which IC50 (AR-TIF2 PPI; [3]) is on record?
Its IC50 is > 100 µM.

And the IC50 (AR-TIF2 PPI; [2])?
The IC50 was > 100 µM.

What about the IC50 [1, 5] of the same molecule?
The IC50 was 10 to 100 µM.

What about the IC50 [1, 6] of the same molecule?
Its IC50 is 40 to 59 µM.

From patent US20260083751A1, “ALLOSTERIC MODULATORS OF ANDROGEN RECEPTOR COACTIVATOR RECRUITMENT FOR CRPC THERAPY” (University of Pittsburgh – Of the Commonwealth System of …, priority 2022, published 2026)
